Solubility in water data for three compounds are collected here from US20050008851A1, “Biosensor” (FUJI PHOTO FILM CO., LTD., priority 2003, published 2005).

SMILES strings stand for the structures.

For this data set the following is noted: water at 20° C.
`C=Cc1ccccc1` [styrene] displayed a solubility in water of 0.03 % by weight.

Regarding `C=C(C)C(=O)OC` [methyl methacrylate], the solubility in water amounted to 1.35 % by weight.

For `C=C(C)C(=O)OCCCC` [butyl methacrylate], the solubility in water worked out at 0.03 % by weight.
